Test results: publication PMC3527664, “Kinetic properties and small-molecule inhibition of human myosin-6” (Febs Letters, 2012)
Blank lines part the entries; values can stand above or below the molecule they belong to.

What was measured:
human myosin-6 (M6-2R) [1] = target: T1, human myosin-6 (M6-2R) (Homo sapiens, UniProt Q9UM54); experiment: stopped-flow, ATP binding to pyrene-acto•M6-2R; steady-state ATPase turnover; parameters: gene MYO6; M6-2R (human myosin-6 motor domain, amino acids 1-816, fused to artificial lever); with F-actin (pyrene-actin)
T1 sequence (Q9UM54 1-816): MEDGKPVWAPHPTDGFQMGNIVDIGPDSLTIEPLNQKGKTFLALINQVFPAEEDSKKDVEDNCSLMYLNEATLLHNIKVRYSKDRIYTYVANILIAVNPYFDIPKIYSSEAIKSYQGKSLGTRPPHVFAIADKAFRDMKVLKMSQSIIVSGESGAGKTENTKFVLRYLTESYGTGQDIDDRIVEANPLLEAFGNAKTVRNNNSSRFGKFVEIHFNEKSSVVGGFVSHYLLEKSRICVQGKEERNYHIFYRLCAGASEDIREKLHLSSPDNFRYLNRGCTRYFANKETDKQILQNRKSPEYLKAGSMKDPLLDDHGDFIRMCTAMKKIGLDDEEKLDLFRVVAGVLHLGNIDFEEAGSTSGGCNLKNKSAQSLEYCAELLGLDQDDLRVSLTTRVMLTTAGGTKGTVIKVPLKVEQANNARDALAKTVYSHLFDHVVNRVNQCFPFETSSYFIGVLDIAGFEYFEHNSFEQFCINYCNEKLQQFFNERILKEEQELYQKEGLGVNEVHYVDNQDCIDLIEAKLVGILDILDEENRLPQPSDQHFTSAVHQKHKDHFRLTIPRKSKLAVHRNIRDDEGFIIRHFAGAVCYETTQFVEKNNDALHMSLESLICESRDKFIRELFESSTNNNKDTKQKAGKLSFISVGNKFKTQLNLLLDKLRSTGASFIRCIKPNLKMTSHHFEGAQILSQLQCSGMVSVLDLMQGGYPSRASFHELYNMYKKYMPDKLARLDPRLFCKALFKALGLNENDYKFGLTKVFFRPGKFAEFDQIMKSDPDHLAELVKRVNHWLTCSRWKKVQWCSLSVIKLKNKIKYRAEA
Source text: stopped-flow, ATP binding to pyrene-acto•M6-2R; steady-state ATPase turnover on human myosin-6 (M6-2R) | ATP binding to the complex formed by pyrene–actin and M6-2R show a linear dependence on [ATP]

human myosin-6 (M6-2R) [2] = target: T1, human myosin-6 (M6-2R); experiment: actin-activated ATPase assay (NADH-coupled), biphasic inhibition; binding also by MST (data not shown); type: biochemical; parameters: gene MYO6; amino acids 1-816 of human myosin-6 motor domain fused to an artificial lever derived from Dictyostelium discoideum α-actinin (M6-2R); with F-actin (rabbit skeletal muscle); calmodulin associated with insert-2
human myosin-6 (M6-2R) [3] = target: T1, human myosin-6 (M6-2R); experiment: stopped-flow fluorescence, second-order binding rate constant K1k+[…]; parameters: gene MYO6; M6-2R (human myosin-6 motor domain, amino acids 1-816, fused to artificial lever)
human myosin-6 = target: T2, human myosin-6 (Homo sapiens, UniProt Q9UM54); experiment: myosin-6 ATPase assay; MST affinity ranking; type: biochemical
T2 construct: gene MYO6; human myosin-6 motor domain construct M6-2R (amino acids 1-816)
T2 sequence (Q9UM54 1-816): as above

human myosin-6 (M6-2R) [4] = target: T1, human myosin-6 (M6-2R); experiment: stopped-flow fluorescence, KD = k−D/k+D; type: binding; parameters: gene MYO6; M6-2R (human myosin-6 motor domain, amino acids 1-816, fused to artificial lever); settings: read-out: Hs Myosin-6 ^a^, ^b

Molecule: Nc1ncnc2c1ncn2[C@@H]1O[C@H](COP(=O)(O)OP(=O)(O)OP(=O)(O)O)[C@@H](O)[C@H]1O [ATP]
kon (human myosin-6 (M6-2R) [1]): 11000 ± 300 M⁻¹ s⁻¹

Molecule: Oc1c(I)cc(I)cc1I [TIP, 2,4,6-triiodophenol]
Ki (human myosin-6 (M6-2R) [2]): 800 ± 500 nM

kon (human myosin-6 (M6-2R) [3]): 50000 ± 10000 M⁻¹ s⁻¹
Molecule: CNc1ccccc1C(=O)O[C@H]1C[C@H](n2cnc3c(N)ncnc32)O[C@@H]1COP(=O)(O)OP(=O)(O)OP(=O)(O)O [d-mantATP, 2′-deoxy-3′-O-(N′-methylanthraniloyl)adenosine-5′-O-triphosphate]

Molecule: Oc1c(Br)c(Br)c(Br)c(Br)c1Br [pentabromophenol]
myosin-6 ATPase assay; MST affinity ranking (human myosin-6): Pentabromophenol and TIP inhibit myosin-6 ATPase activity in the low micromolar range

Molecule: mantADP
Kd (human myosin-6 (M6-2R) [4]): 2000 ± 150 nM
